Data reported in patent US20160318844A1, “PROSTACYCLIN COMPOUNDS, COMPOSITIONS AND METHODS OF USE THEREOF” (Insmed Incorporated, priority 2015, published 2016).
“Also recorded” adds a separate entry of the source. Where two headings read alike, the source gives them in different places.

Experiments:
[1] = Particle size characterization of treprostinil compositions (QELS); assay type: physicochemical; details: compositions of Table 3, FIG. 2
Experimental: The compositions in Table 3 were subject to particle size characterization.
All particle size measurements were performed using a Wyatt Technology Mobius™ Zeta Potential/Particle Sizing Instrument in Quasi-elastic light scattering (QELS) mode. Composition aliquots were diluted 10-fold in pre-filtered (0.02 μm pore filter) ultrapure of deionized H2O. Light scattering data was collected and converted into particle size and size distribution using Dynamics® v. 7.2.4 instrument software. Reported average particle size diameter is based on the cumulants model, which mathematically fits particle diffusion constants (determined by the raw scattering intensities of particles in a suspension) to obtain the particle size mean and a distribution of particle sizes around the mean diameter.
Particle uniformity was determined using the software-calculated polydispersity (% PD). Polydispersity is defined as the standard deviation of the particle size distribution from the mean particle size value. % PD normalizes the polydispersity to the mean diameter by dividing by the mean size and multiplying by 100. […]
Dynamics@ polydispersity parameter represents a monodisperse population of particles if % PD ≦15. A calculated % PD ≧57% represents a polydisperse population of particles.

[2] = rat, in vivo
Experimental: Nebulized treprostinil (TRE) solution and treprostinil alkyl ester formulations were administered (at 15 nmol/kg, or […] TRE equivalent) to anaesthetised-ventilated rats (6-hour studies) or to conscious rats by nose-only inhalation (24-hour studies). Blood and lung samples were collected at specified time points. TRE and treprostinil alkyl ester concentrations in blood plasma and lung tissue were measured by HPLC/MS/MS analysis.
Male Sprague Dawley rats were placed in restraining tubes and exposed to nebulised drugs via the Jaeger-NYU Nose-Only Directed-Flow Inhalation Exposure System (CH Technologies, Westwood, N.J.) (FIG. 31). Test articles (6 mL at specific concentration) were nebulised using the Aeroneb nebuliser to deliver a predetermined estimated pulmonary dose. Blood and lung tissue samples were taken at selected times after nebulization of the drugs over a 24-hour period.

EP2 prostanoid receptor = biological target: T1, EP2 prostanoid receptor (Homo sapiens, UniProt P43116); test: GloSensor cAMP assay in CHO-K1 cells co-transfected with the EP2 receptor; assay type: cell-based; details: for change of potency with incubation time: cAMP dose response curves, 0.5 hr to 8 hr; for ranking of activity: kinetic profile at 10 μM and 5 μM
T1 construct: host or cells: CHO-K1
Source text: cAMP is a second messenger involved in signal transduction of G-protein coupled receptors (GPCRs) acting through Gα-s and Gα-i proteins. Because the treprostinil receptor is a GPCR, the assay provides an indication of whether the respective prostacyclin compound (or metabolite thereof) binds its receptor and activates the GPCR cell signaling cascade. The GloSensorTM assay harnesses a genetically modified form of firefly luciferase into which a cAMP-binding protein moiety has been inserted. Upon binding of cAMP, a conformational change is induced leading to increased light output. The EP2 prostanoid receptor was cotransfected with the GioSensorm plasmid (Promega) into CHO-K cells as follows. CHO-K cells were harvested when the monoloayer was at 50-90% confluence. First, cells were washed with 5 mL PBS. […] The media was aspirated, and the cell pellet was resuspended in 10 mL of growth media. Cell number was determined using a hemacytometer. […] For small scale transfections of up to 20 wells, the pGLoSensor-22F cAMP plasmid (Promega, Cat #: E2301) (2 apg): […] Cat #: […] P2271) ratio was diluted to a final concentration of 12.6 ng/μL (total plasmid) in Opti-MEM I reduced-serum medium (Life Technologies, Cat #: 1985062). Next, 6 μL of FuGENE HD transfection reagent (Promega, Cat #: E2311) was added to 160 μL of diluted plasmid and mixed carefully by gentle pipetting. The complex was incubated at room temperature for 0 to 10 minutes, and then 8 μL of the complex was added per well of a 96 well white assay plate (Costar, Cat #: 3917) and gently mixed without disturbing the cell monolayer. […] Following incubation, cells were treated and analyzed. For larger scale transfections, the aforementioned steps were scaled up accordingly, and cells were frozen following the last incubation. In order to prepare frozen transfected CHO-K cells, the media was aspirated from culture flasks and cells were rinsed with 5 mL PBS. […] Cell number was determined using a hemacytometer. The media was aspirated, and the cell pellet was resuspended in freezing media (Millipore, cat #: S-002-SF) at 2.5×10^4 cells/vial. Transfected cells were incubated overnight at -80° C. before transfer to liquid nitrogen for long term storage. […] SH30071.03)). […] In preparation for cAMP measurement, the cells were equilibrated with the GloSensor cAMP reagent prior to treatment. For equilibration, the medium was carefully removed from the individual well. Next, 100 μL of equilibration medium ([…] of Glosensor Reagent stock solution (Promega, Cat #: E291), 10% FBS (Hydone, Cat #: SH30071.03) and 88% CO2 independent medium (Life Technologies, Cat #: 18045088)) was added per well of the 96-well plate, and added to the side of each well. The plate was then incubated for 2 hours at room temperature. A first pre-read measurement was taken using a microplate reader (MicroLumat Plus). Plates were incubated for an additional 10 minutes at room temperature, followed by a second pre-read measurement. […] Following treatment, each plate was read every 5 minutes for the duration of the assay using a microplate reader (MicroLumat Plus). In order to determine the fold change in cAMP relative to the control, the transfection efficiency was first determined by dividing the second pre-read measurement by the average of the corresponding pre-read measurements. Next, the normalized relative light units (RLUs) of the samples were determined by dividing the plate read measurement by the transfection efficiency. The fold change in cAMP relative to the control was then determined by dividing the normalized RLU of the samples by the normalized RLU of the control. The cAMP assay was validated using free treprostinil. […] Luminescence was then measured at room temperature. […] Nebulizer Aeroneb Pro (Aerogen) was used to nebulize treprostinil derivative compositions. Desired volume of the formulation (usually 3 mL) was loaded to the mesh head of the nebulizer. […]

[3] = Tolerability and pharmacokinetics in rats, inhaled C16-TR (T748) for 14-consecutive days; assay type: in vivo, rat; details: inhaled 0.6-18 μg/kg, formulation T748
Experimental: Body weights were recorded daily and organ weights (lungs, heart, liver) were measured 24 hr. after the last drug dose.

[4] = Treprostinil pharmacokinetics in anaesthetised, ventilated rats after nebulized dosing; assay type: in vivo, rat
Experimental: Male Sprague Dawley rats were anaesthetised and prepared with endotracheal tube for ventilation. The right femoral vein was cannulated to facilitate blood collections. Terminal lung samples were taken for analysis only 6 hours after dosing. […] Systemic blood pressure (mSAP), heart rate (HR), and arterial oxygen saturation (Sa02). Physiologic parameters were measured during normoxia (fraction of inspired oxygen [FrO2]=0.21, SaO2≈90%) and for 2 to 3 hours during hypoxia (FrO2=0.10, SaO2≈50%).

guinea pigs = test: Cough reflex in guinea pigs; assay type: in vivo, guinea pig
Experimental: Aerosols were generated with an Ultra-Neb Pro nebulizer (nebulizer output 0.36 mL/min.) that was mixed with inspired air delivered at a rate of 2 L/min. The PBS or drugs were delivered for 10 min. and the number of coughs recorded during and for 20 min. after the delivery. Coughs were detected by visual observations, plethysmograph recordings and cough sounds.

in vivo = details: dog
Experimental: Twelve beagle dogs of either sex were randomly assigned to different inhaled doses of treprostinil in PBS or the compound of Formula (A) wherein R2=
Formulations were nebulized with an Aeroneb nebulizer (MMAD: 2.5-4 μm) delivered into a 500 m1 expansion chamber. Formulations were nebulized for 2 min at ventilator settings of 90 ml/breath, 15 breaths/min (delivered volume=2.7 L) and collected on a filter. Drug amount (μg) on the filter was measured by HPLC to calculate the concentration of drug delivered through the ventilator circuit (μg/L).
(§1) Dosimetry was performed in propofol-anesthetized dogs in which nebulized drugs were introduced into a mixing chamber interposed on the inspiratory limb of a canine respirator. Technical trials were performed before each experiment to measure the concentration of drug (μg/L) delivered for each breath. The inhaled drug dose (μg/kg) was calculated using the formula: Inhaled Drug Dose (μg/kg)=Drug Conc. (μg/L)×Minute Ventilation (L/min.)×Time (min.)/Body Weight (kg). […] Clinical signs were monitored over this 72 hr. period.
(§2) Dosimetry was performed in propofol-anesthetized, artificially ventilated dogs in which nebulized drugs were introduced into a mixing chamber interposed on the inspiratory limb of the respirator. Technical trials were performed before each experiment measuring the concentration of drug (μg/L) per breath, minute ventilation and time required to achieve a targeted pulmonary dose. […] Clinical signs (cough, rapid shallow breathing, emesis and pale gums) were also monitored.

beagle dogs = test: Clinical signs in dogs after inhalation
Experimental: as §1, §2

[5] = male, Sprague Dawley, rat, inhaled or intranasal, 6 ug/kg, plasma treprostinil, nebulized, estimated pulmonary dose of 6 μg/kg

T1 sequence (P43116 whole entry): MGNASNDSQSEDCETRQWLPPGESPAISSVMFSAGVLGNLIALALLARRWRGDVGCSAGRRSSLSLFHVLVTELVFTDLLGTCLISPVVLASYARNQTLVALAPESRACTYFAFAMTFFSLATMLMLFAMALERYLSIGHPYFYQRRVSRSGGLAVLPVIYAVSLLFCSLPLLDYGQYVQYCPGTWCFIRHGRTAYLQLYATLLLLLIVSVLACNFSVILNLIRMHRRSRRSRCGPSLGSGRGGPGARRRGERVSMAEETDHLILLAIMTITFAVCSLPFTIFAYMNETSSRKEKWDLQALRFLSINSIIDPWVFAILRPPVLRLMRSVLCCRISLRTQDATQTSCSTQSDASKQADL

For `CCCCCCCCCCCCCCOC(=O)COc1cccc2c1C[C@H]1C[C@@H](O)[C@H](CC[C@@H](O)CCCCC)[C@H]1C2` [Compound C14-TR, tetradecyl-treprostinil], the “polydispersity (% PD)” value [1] was “around 15 % PD”, the “immediately post dose (IPD)” value [2] was 10.4 µg/kg and the “change of potency with incubation time” value (EP2 prostanoid receptor) was “increases with incubation time”. For the same compound, the ranking of activity (EP2 prostanoid receptor) was “C12-TR>C14-TR>5-nonanyl-TR>C16-TR”.

In the case of `CCCCCCCCCCCCCCCCOC(=O)COc1cccc2c1C[C@H]1C[C@@H](O)[C@H](CC[C@@H](O)CCCCC)[C@H]1C2` [Compound C16-TR, hexadecyl-treprostinil], the “tolerability, body weights and organ weights” value [3] is reported as “no tolerability issues or significant changes (relative to PBS) in body weights and organ weights; also recorded: well tolerated”, the “change of potency with incubation time” value (EP2 prostanoid receptor) is reported as “increases with incubation time” and the ranking of activity (EP2 prostanoid receptor) is reported as “C12-TR>C14-TR>5-nonanyl-TR>C16-TR”.

For `CCCCC[C@H](O)CC[C@@H]1[C@H]2Cc3cccc(OCC(=O)O)c3C[C@H]2C[C@H]1O` [Treprostinil, (1R,2R,3aS,9aS)-[[2,3,3a,4,9,9a-hexahydro-2-hydroxy-1-[(3S)-3-hydroxyoctyl]-1H-benz[f]inden-5-yl]oxy]acetic acid], the “time by which measurable levels of TRE were no longer seen in the lungs” value [4] was under 6 h, the “time up to which measurable levels of TRE were seen in blood plasma” value [4] was at most 4 h and the AUC(0-t) [4, 5] was 2.13 ng·h/mL. For the same compound, the Cmax [4, 5] was 3.37 ng/mL, the Tmax [4, 5] was 3 min and the Cmax ([4]; male, Sprague Dawley, rat, inhaled, 6 ug/kg, plasma treprostinil, nebulized, estimated pulmonary dose of 6 μg/kg) was 3.5 ng/mL. For the same compound, the “exposure concentration that consistently evokes cough” value (guinea pigs; aerosol 1-300 μg/ml) was at least 30 µg/mL, the cough bouts (guinea pigs; nebulized concentration of 30 μg/mL) was 1-4 and the “guinea pigs with cough” value (guinea pigs; nebulized concentration of 30 μg/mL, 10 min. exposure) was 7 of 7. For the same compound, the “total number of coughs” value (guinea pigs; nebulized concentration of 30 μg/mL, average) was 36±9 coughs, the “cAMP levels sustained for” value (EP2 prostanoid receptor; 10 μM, FIG. 3A) was “not exhibited” and the EC50 (EP2 prostanoid receptor; 4.5 hr incubation time, read-out: EC50 (μM) 4.5 hr) was 0.2 µM. The EC50 (EP2 prostanoid receptor; 6.0 hr incubation time, read-out: EC50 (μM) 6.0 hr) was 0.29 µM, the EC50 (EP2 prostanoid receptor; 8.0 hr incubation time, read-out: EC50 (μM) 8.0 hr) was 0.44 µM and the EC50 (EP2 prostanoid receptor; EC50 (μM) 0.5 hr, 0.5 hr incubation time) was 0.18 µM. The EC50 (EP2 prostanoid receptor; EC50 (μM) 1.0 hr, 1.0 hr incubation time) was 0.28 µM, the EC50 (EP2 prostanoid receptor; EC50 (μM) 2.0 hr, 2.0 hr incubation time) was 0.15 µM and the EC50 (EP2 prostanoid receptor; EC50 (μM) 3.0 hr, 3.0 hr incubation time) was 0.16 µM. For the same compound, the EC50 (EP2 prostanoid receptor; EC50 (μM) 4.0 hr, 4.0 hr incubation time) was 0.19 µM, the EC50 (EP2 prostanoid receptor; EC50 (μM) 5.0 hr, 5.0 hr incubation time) was 0.26 µM and the EC50 (EP2 prostanoid receptor; EC50 (μM) 7.0 hr, 7.0 hr incubation time) was 0.46 µM. For the same compound, the “Max cAMP level (Fold)” value (EP2 prostanoid receptor; Table 4, compositions of FIGS. 3A-3C (10 μM, 1 μM, 0.1 μM), 8 hours time course) was about 16 Fold, the “Max cAMP level (Fold)” value (EP2 prostanoid receptor; Table 5, 5 μM, FIG. 4, 8 hours time course) was about 14 Fold and the “Max cAMP level (Fold)” value (EP2 prostanoid receptor; Table 6, effect of nebulization, head (5 μM), FIG. 6) was about 15 Fold. For the same compound, the “change of potency with incubation time” value (EP2 prostanoid receptor) was “potency decreases with increasing incubation time”, the Cmax (in vivo; beagle, 18 ug/kg) was 5.9 ± 0.6 ng/mL and the “treprostinil plasma Cmax, fold higher than with T623 at similar inhaled doses” value (in vivo; both, beagle) was 15-20 fold. For the same compound, the Cmax (in vivo; both, beagle, inhaled or intranasal, 5 ug/kg) was 2.7 ng/mL, the Cmax (in vivo; both, beagle, inhaled or intranasal, 16 ug/kg) was 5.9 ng/mL and the “period over which plasma levels of treprostinil were sustained” value (in vivo) was “disappeared within a few hours”. The “respiratory irritation (coughing, rapid shallow breathing)” value (beagle dogs; T623 inhaled doses as high as 46 μg/kg, treprostinil 5 and 16 μg/kg) was “present during the recovery period” and the adverse clinical signs (beagle dogs; targeted dose of 18 μg/kg) was “Adverse clinical signs were seen”.

In the case of “treprostinil decyl ester [Compound C10-TR]”, the “polydispersity (% PD)” value [1] is reported as “around 15 % PD”, the “duration of cAMP levels” value (EP2 prostanoid receptor; 5 μM, FIG. 4 and FIG. 5) is reported as “sustained significantly longer than free treprostinil” and the “cAMP levels compared with free treprostinil” value (EP2 prostanoid receptor; 10 μM, FIG. 3A) is reported as “equivalent to free treprostinil”. The “cAMP levels sustained for” value (EP2 prostanoid receptor; 10 μM, FIG. 3A) was “at least 6 hours”, the “cAMP response compared with free treprostinil” value (EP2 prostanoid receptor; compositions, 5 μM, FIG. 4) was “greater than or equivalent to the response induced by free treprostinil” and the cAMP response levels (EP2 prostanoid receptor; unformulated compounds, 5 μM, FIG. 5) was “equivalent to free treprostinil”.
